Measurements reported in the supplement of paper PMC13207355.

Assays:
Settings in all cases: exposure time: 72 h
[1] = system: E13 (patient-derived glioblastoma stem cells of classical subtype); assay: surviving fraction (nuclei count normalised to DMSO); higher = more cells surviving (less toxic)
[2] = system: E21 (patient-derived glioblastoma stem cells of mesenchymal subtype); assay: as above
[3] = system: E28 (patient-derived glioblastoma stem cells of classical subtype); assay: as above
[4] = system: E31 (patient-derived glioblastoma stem cells of proneural subtype); assay: as above
[5] = system: E34 (patient-derived glioblastoma stem cells of proneural subtype); assay: as above
[6] = system: E57 (patient-derived glioblastoma stem cells of mesenchymal subtype); assay: as above
[7] = system: FT3469 (normal neural stem cell line); assay: as above
[8] = system: E13; assay: phenotypic distance (Euclidean, principal components) from DMSO controls (arbitrary units); higher = stronger morphological change
[9] = system: E21; assay: as above
[10] = system: E28; assay: as above
[11] = system: E31; assay: as above
[12] = system: E34; assay: as above
[13] = system: E57; assay: as above
[14] = system: FT3469; assay: as above
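Wherever phenotypic distance (Euclidean, principal components) from DMSO controls is given: cell Painting imaging in 384-well plates, CellProfiler features reduced to at least 20 principal components, Euclidean distance versus same-plate DMSO vehicle wells (0.1% v/v), median over six images per well.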
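Wherever surviving fraction (nuclei count normalised to DMSO) is given: nuclei counted by high-content imaging of Hoechst-stained cells in laminin-coated 384-well plates, relative to 0.1% DMSO vehicle wells, with staurosporine as cell-death control.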

NCCNc1ccc(NCCN)c2c1C(=O)c1ccncc1C2=O [Pixantrone dimaleate]
Settings | phenotypic distance | surviving fraction
[1], 4.1 nM | – | 0.883
[1], 12.3 nM | – | 0.94
[1], 37 nM | – | 0.916
[1], 111.1 nM | – | 0.798
[1], 333.3 nM | – | 0.48
[1], 1000 nM | – | 0.399
[1], 3000 nM | – | 0.383
[2], 4.1 nM | – | 0.991
[2], 12.3 nM | – | 0.812
[2], 37 nM | – | 0.904
[2], 111.1 nM | – | 0.733
[2], 333.3 nM | – | 0.619
[2], 1000 nM | – | 0.509
[2], 3000 nM | – | 0.364
[3], 4.1 nM | – | 0.677
[3], 12.3 nM | – | 0.604
[3], 37 nM | – | 0.524
[3], 111.1 nM | – | 0.418
[3], 333.3 nM | – | 0.349
[3], 1000 nM | – | 0.333
[3], 3000 nM | – | 0.216
[4], 4.1 nM | – | 0.539
[4], 12.3 nM | – | 0.566
[4], 37 nM | – | 0.397
[4], 111.1 nM | – | 0.327
[4], 333.3 nM | – | 0.312
[4], 1000 nM | – | 0.275
[4], 3000 nM | – | 0.142
[5], 4.1 nM | – | 0.839
[5], 12.3 nM | – | 0.771
[5], 37 nM | – | 0.637
[5], 111.1 nM | – | 0.702
[5], 333.3 nM | – | 0.686
[5], 1000 nM | – | 0.588
[5], 3000 nM | – | 0.492
[6], 4.1 nM | – | 0.955
[6], 12.3 nM | – | 0.897
[6], 37 nM | – | 0.79
[6], 111.1 nM | – | 0.555
[6], 333.3 nM | – | 0.346
[6], 1000 nM | – | 0.288
[6], 3000 nM | – | 0.24
[7], 4.1 nM | – | 0.869
[7], 12.3 nM | – | 0.795
[7], 37 nM | – | 0.763
[7], 111.1 nM | – | 0.623
[7], 333.3 nM | – | 0.666
[7], 1000 nM | – | 0.631
[7], 3000 nM | – | 0.565
[8], 4.1 nM | 2.19 | –
[8], 12.3 nM | 0.616 | –
[8], 37 nM | 0.772 | –
[8], 111.1 nM | 1.76 | –
[8], 333.3 nM | 4.4 | –
[8], 1000 nM | 5.24 | –
[8], 3000 nM | 4.99 | –
[9], 4.1 nM | 0.691 | –
[9], 12.3 nM | 0.873 | –
[9], 37 nM | 0.996 | –
[9], 111.1 nM | 2.7 | –
[9], 333.3 nM | 4.95 | –
[9], 1000 nM | 6 | –
[9], 3000 nM | 5.53 | –
[10], 4.1 nM | 2.06 | –
[10], 12.3 nM | 2.09 | –
[10], 37 nM | 2.43 | –
[10], 111.1 nM | 3.32 | –
[10], 333.3 nM | 3.6 | –
[10], 1000 nM | 3.19 | –
[10], 3000 nM | 4.63 | –
[11], 4.1 nM | 2.15 | –
[11], 12.3 nM | 1.85 | –
[11], 37 nM | 2.43 | –
[11], 111.1 nM | 3.58 | –
[11], 333.3 nM | 2.86 | –
[11], 1000 nM | 3.07 | –
[11], 3000 nM | 4.34 | –
[12], 4.1 nM | 0.885 | –
[12], 12.3 nM | 0.947 | –
[12], 37 nM | 1.52 | –
[12], 111.1 nM | 3.49 | –
[12], 333.3 nM | 3.78 | –
[12], 1000 nM | 3.22 | –
[12], 3000 nM | 1.77 | –
[13], 4.1 nM | 0.987 | –
[13], 12.3 nM | 0.95 | –
[13], 37 nM | 1.45 | –
[13], 111.1 nM | 3.37 | –
[13], 333.3 nM | 6.17 | –
[13], 1000 nM | 7.83 | –
[13], 3000 nM | 8.45 | –
[14], 4.1 nM | 1.02 | –
[14], 12.3 nM | 1.28 | –
[14], 37 nM | 1.5 | –
[14], 111.1 nM | 2.03 | –
[14], 333.3 nM | 1.76 | –
[14], 1000 nM | 1.86 | –
[14], 3000 nM | 2.37 | –

COc1cc([C@@H]2c3cc4c(cc3[C@H](O)[C@H]3COC(=O)[C@H]23)OCO4)cc(OC)c1OC [Podophyllotoxin]
Settings | phenotypic distance | surviving fraction
[1], 4.1 nM | – | 0.153
[1], 12.3 nM | – | 0.182
[1], 37 nM | – | 0.139
[1], 111.1 nM | – | 0.182
[1], 333.3 nM | – | 0.123
[1], 1000 nM | – | 0.197
[1], 3000 nM | – | 0.112
[2], 4.1 nM | – | 0.115
[2], 12.3 nM | – | 0.113
[2], 37 nM | – | 0.0947
[2], 111.1 nM | – | 0.0585
[2], 333.3 nM | – | 0.0628
[2], 1000 nM | – | 0.0607
[2], 3000 nM | – | 0.0362
[3], 4.1 nM | – | 0.354
[3], 12.3 nM | – | 0.369
[3], 37 nM | – | 0.324
[3], 111.1 nM | – | 0.265
[3], 333.3 nM | – | 0.22
[3], 1000 nM | – | 0.209
[3], 3000 nM | – | 0.198
[4], 4.1 nM | – | 0.0505
[4], 12.3 nM | – | 0.0728
[4], 37 nM | – | 0.0565
[4], 111.1 nM | – | 0.0446
[4], 333.3 nM | – | 0.0282
[4], 1000 nM | – | 0.0371
[4], 3000 nM | – | 0.0297
[5], 4.1 nM | – | 0.471
[5], 12.3 nM | – | 0.378
[5], 37 nM | – | 0.31
[5], 111.1 nM | – | 0.339
[5], 333.3 nM | – | 0.32
[5], 1000 nM | – | 0.329
[5], 3000 nM | – | 0.249
[6], 4.1 nM | – | 0.0665
[6], 12.3 nM | – | 0.0974
[6], 37 nM | – | 0.0586
[6], 111.1 nM | – | 0.0625
[6], 333.3 nM | – | 0.089
[6], 1000 nM | – | 0.0755
[6], 3000 nM | – | 0.0653
[7], 4.1 nM | – | 0.517
[7], 12.3 nM | – | 0.541
[7], 37 nM | – | 0.375
[7], 111.1 nM | – | 0.377
[7], 333.3 nM | – | 0.433
[7], 1000 nM | – | 0.416
[7], 3000 nM | – | 0.379
[8], 4.1 nM | 6.81 | –
[8], 12.3 nM | 7.76 | –
[8], 37 nM | 6.3 | –
[8], 111.1 nM | 8.14 | –
[8], 333.3 nM | 7.56 | –
[8], 1000 nM | 9.37 | –
[8], 3000 nM | 9.25 | –
[9], 4.1 nM | 8.85 | –
[9], 12.3 nM | 8.76 | –
[9], 37 nM | 8.54 | –
[9], 111.1 nM | 8.65 | –
[9], 333.3 nM | 8.16 | –
[9], 1000 nM | 8.89 | –
[9], 3000 nM | 8.66 | –
[10], 4.1 nM | 3.02 | –
[10], 12.3 nM | 3.22 | –
[10], 37 nM | 4.05 | –
[10], 111.1 nM | 5.71 | –
[10], 333.3 nM | 5.89 | –
[10], 1000 nM | 6.42 | –
[10], 3000 nM | 6.86 | –
[11], 4.1 nM | 5.03 | –
[11], 12.3 nM | 5.75 | –
[11], 37 nM | 7.75 | –
[11], 111.1 nM | 13.3 | –
[11], 333.3 nM | 11.2 | –
[11], 1000 nM | 14.3 | –
[11], 3000 nM | 13.5 | –
[12], 4.1 nM | 4.47 | –
[12], 12.3 nM | 4.98 | –
[12], 37 nM | 6.57 | –
[12], 111.1 nM | 8.02 | –
[12], 333.3 nM | 7.55 | –
[12], 1000 nM | 9.53 | –
[12], 3000 nM | 9.18 | –
[13], 4.1 nM | 6.96 | –
[13], 12.3 nM | 6.65 | –
[13], 37 nM | 7.38 | –
[13], 111.1 nM | 5.64 | –
[13], 333.3 nM | 6.77 | –
[13], 1000 nM | 7.07 | –
[13], 3000 nM | 6.6 | –
[14], 4.1 nM | 4.23 | –
[14], 12.3 nM | 5.67 | –
[14], 37 nM | 4.76 | –
[14], 111.1 nM | 6.26 | –
[14], 333.3 nM | 5.78 | –
[14], 1000 nM | 5.4 | –
[14], 3000 nM | 6.63 | –
